Experimental data from patent publication US20220031611A1, “IMMUNOSUPPRESSIVE DOSAGE FORMS AND METHODS OF USE” (Gemini Laboratories, LLC, priority 2018, published 2022).

Assay: Storage stability: % assay of Tacrolimus
Type: physicochemical
Details: active pharmaceutical ingredient (API) lot, comparator
From the text: The pharmaceutical formulations disclosed herein may comprise oral formulations having improved solubility and/or stability profiles. The formulations may be suitable for oral delivery, for example via a solution or suspension. The formulations orally administrated via a solution or suspension can be bioequivalent to formulations administered via oral capsules, or any other administration route. The formulations disclosed herein are stable under standard storage conditions or accelerated conditions. The total amount of impurities in the formulations may be not more than about 0.1 to 3%, and standard storage conditions may comprise a temperature of about 20 to 25° C. (i.e., room temperature) and no more than about 40% Relative Humidity (RH). In one embodiment, the formulations disclosed herein are stable at room temperature for 18 to 24 months or longer. The stability of a formulation according to the present disclosure can be determined, for example, by measuring the physical state of the formulation, including the viscosity and presence of any discoloration and chemical stability by measuring assay of API & related compound. Tables 4 and 5 present stability characteristics of the compositions provided in Examples 1 & 2 above. The following Tables 8-9 show purity of a Tacrolimus oral solution of 1 mg/ml as a percent assay, based on the batch descriptions in Table 7. […]

Question: With `C=CC[C@@H]1/C=C(\C)C[C@H](C)C[C@H](OC)[C@H]2O[C@@](O)(C(=O)C(=O)N3CCCC[C@H]3C(=O)O[C@H](/C(C)=C/[C@@H]3CC[C@@H](O)[C@H](OC)C3)[C@H](C)[C@@H](O)CC1=O)[C@H](C)C[C@@H]2OC` [API_Lot # DMP (079)-38, Tacrolimus] as the compound, how does the “% Assay” value read?
Answer: 97.1%
